Assay results taken from ChEMBL document CHEMBL3526076, “Species-dependent and receptor-selective action of bilobalide on the function of constitutive androstane receptor and pregnane X receptor” (Drug Metab Dispos, 2012).

How the values were obtained:
[1] = target: T1, Nuclear receptor subfamily 1 group I member 3 (Homo sapiens, UniProt Q14994); experiment: Activation of human CAR expressed in human HepG2 cells coexpressing CYP2B6 at 10 uM after 24 hrs by dual luciferase reporter gene assay; format: ADME, cell-based; details: hepg2, 24 h
T1 sequence (Q14994 whole entry): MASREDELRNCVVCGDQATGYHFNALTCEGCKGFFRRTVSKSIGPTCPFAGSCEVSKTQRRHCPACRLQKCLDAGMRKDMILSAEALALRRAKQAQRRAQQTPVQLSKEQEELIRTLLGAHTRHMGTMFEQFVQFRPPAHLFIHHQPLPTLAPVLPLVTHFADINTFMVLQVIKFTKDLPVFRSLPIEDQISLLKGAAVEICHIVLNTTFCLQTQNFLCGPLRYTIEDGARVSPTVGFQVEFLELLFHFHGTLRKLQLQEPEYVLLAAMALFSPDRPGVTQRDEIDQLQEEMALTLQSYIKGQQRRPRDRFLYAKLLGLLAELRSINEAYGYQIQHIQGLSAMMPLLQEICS

[2] = target: T2, Nuclear receptor subfamily 1 group I member 3 (Rattus norvegicus, UniProt Q9QUS1); experiment: Activation of rat CAR expressed in rat hepatocytes coexpressing CYP2B1 at 1 uM after 24 hrs by dual luciferase reporter gene assay; format: ADME, cell-based, Hepatocyte
T2 sequence (Q9QUS1 whole entry): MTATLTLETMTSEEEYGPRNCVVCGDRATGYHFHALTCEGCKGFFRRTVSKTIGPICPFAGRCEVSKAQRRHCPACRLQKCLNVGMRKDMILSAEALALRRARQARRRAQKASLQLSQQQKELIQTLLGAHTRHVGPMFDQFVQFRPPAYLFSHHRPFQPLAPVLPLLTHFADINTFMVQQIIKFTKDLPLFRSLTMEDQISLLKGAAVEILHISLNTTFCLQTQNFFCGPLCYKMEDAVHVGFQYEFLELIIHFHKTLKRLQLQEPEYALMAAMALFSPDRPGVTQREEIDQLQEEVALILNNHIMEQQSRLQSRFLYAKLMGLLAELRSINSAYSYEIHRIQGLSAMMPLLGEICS

[3] = target: T1, Nuclear receptor subfamily 1 group I member 3; experiment: Activation of human CAR expressed in rat hepatocytes coexpressing CYP2B1 at 1 uM after 24 hrs by dual luciferase reporter gene assay; format: ADME, cell-based, Hepatocyte
[4] = target: T1, Nuclear receptor subfamily 1 group I member 3; experiment: Activation of human CAR expressed in human HepG2 cells coexpressing CYP2B6 at 0.25 uM after 24 hrs by dual luciferase reporter gene assay; format: ADME, cell-based; details: hepg2, 24 h
[5] = target: T3, Nuclear receptor subfamily 1 group I member 2 (Rattus norvegicus, UniProt Q9R1A7); experiment: Antagonist activity at rat PXR expressed in human HepG2 cells coexpressing CYP3A4 assessed as inhibition of PCN-induced receptor activation at 30 uM after 24 hrs by dual luciferase reporter gene assay; format: ADME, cell-based; details: hepg2, 24 h
T3 sequence (Q9R1A7 whole entry): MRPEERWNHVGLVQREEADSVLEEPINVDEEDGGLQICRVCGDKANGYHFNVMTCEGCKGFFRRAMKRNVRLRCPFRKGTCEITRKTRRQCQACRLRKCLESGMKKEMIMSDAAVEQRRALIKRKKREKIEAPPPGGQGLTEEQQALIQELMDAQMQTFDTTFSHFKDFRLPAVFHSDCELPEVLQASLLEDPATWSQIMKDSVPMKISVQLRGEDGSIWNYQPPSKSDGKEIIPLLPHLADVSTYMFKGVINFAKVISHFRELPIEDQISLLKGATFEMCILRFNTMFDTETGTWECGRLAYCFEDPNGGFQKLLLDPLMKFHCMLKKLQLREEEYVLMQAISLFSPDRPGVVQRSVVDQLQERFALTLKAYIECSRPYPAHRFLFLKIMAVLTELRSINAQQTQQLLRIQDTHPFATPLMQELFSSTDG

[6] = target: T4, Nuclear receptor subfamily 1 group I member 2 (Homo sapiens, UniProt O75469); experiment: Antagonist activity at human PXR expressed in human HepG2 cells coexpressing CYP3A4 assessed as inhibition of rifampicin-induced receptor activation at 30 uM after 24 hrs by dual luciferase reporter gene assay; format: ADME, cell-based; details: hepg2, 24 h
T4 sequence (O75469 whole entry): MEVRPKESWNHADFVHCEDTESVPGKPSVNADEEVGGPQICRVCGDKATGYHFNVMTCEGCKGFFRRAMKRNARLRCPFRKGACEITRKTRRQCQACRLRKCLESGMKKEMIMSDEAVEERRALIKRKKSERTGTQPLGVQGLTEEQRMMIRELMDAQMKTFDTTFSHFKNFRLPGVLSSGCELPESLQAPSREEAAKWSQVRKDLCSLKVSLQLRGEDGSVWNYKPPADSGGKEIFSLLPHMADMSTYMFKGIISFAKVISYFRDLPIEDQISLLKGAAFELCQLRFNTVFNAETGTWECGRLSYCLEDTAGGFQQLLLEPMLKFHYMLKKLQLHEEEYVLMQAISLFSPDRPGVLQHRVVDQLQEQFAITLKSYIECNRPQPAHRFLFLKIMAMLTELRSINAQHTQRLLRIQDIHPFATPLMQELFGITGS

[7] = target: T5, CYP2B activity (CAR activation) (Rattus norvegicus, UniProt Q9QUS1); experiment: Activation of CAR in rat hepatocytes assessed as increase in CYP2B-mediated benzyloxyresorufin O-dealkylation at 100 uM after 24 hrs by spectrofluorometric analysis relative to control; format: ADME, cell-based, Hepatocyte; details: probe benzyloxyresorufin (O-dealkylation), read-out: FC
T5 sequence (Q9QUS1 whole entry): T2 sequence (Q9QUS1 whole entry)

CAR (CYP2B1 reporter) = target: T6, CAR (CYP2B1 reporter) (Rattus norvegicus, UniProt Q9QUS1); experiment: Activation of rat CAR expressed in rat hepatocytes coexpressing CYP2B1 at 100 uM after 24 hrs by dual luciferase reporter gene assay relative to control; format: ADME, cell-based, Hepatocyte; details: rat hepatocytes expressing rat CAR and coexpressing CYP2B1, read-out: FC
T6 sequence (Q9QUS1 whole entry): T2 sequence (Q9QUS1 whole entry)

[8] = target: T7, CYP2B1 mRNA (CAR activation) (Rattus norvegicus, UniProt Q9QUS1); experiment: Activation of CAR in rat hepatocytes assessed as upregulation of CYP2B1 mRNA expression at 100 uM after 24 hrs by RT-PCR analysis relative to control; format: ADME, cell-based, Hepatocyte; details: read-out: FC
T7 sequence (Q9QUS1 whole entry): T2 sequence (Q9QUS1 whole entry)

[9] = target: T4, Nuclear receptor subfamily 1 group I member 2; experiment: Activation of human PXR expressed in human HepG2 cells coexpressing CYP3A4 at 10 uM after 24 hrs by dual luciferase reporter gene assay relative to control; details: hepg2, 24 h
PXR (CYP3A4 reporter) [10] = target: T8, PXR (CYP3A4 reporter) (Rattus norvegicus, UniProt Q9R1A7); experiment: Activation of rat PXR expressed in human HepG2 cells coexpressing CYP3A4 at 0.1 to 10 uM after 24 hrs by dual luciferase reporter gene assay relative to control; details: human HepG2 cells expressing rat PXR and coexpressing CYP3A4
T8 sequence (Q9R1A7 whole entry): T3 sequence (Q9R1A7 whole entry)

PXR (CYP3A4 reporter) [11] = target: T8, PXR (CYP3A4 reporter); experiment: Activation of rat PXR expressed in rat hepatocytes coexpressing CYP3A4 at 10 uM after 24 hrs by dual luciferase reporter gene assay relative to control; details: rat hepatocytes expressing rat PXR and coexpressing CYP3A4
[12] = target: T4, Nuclear receptor subfamily 1 group I member 2; experiment: Activation of human PXR expressed in rat hepatocytes coexpressing CYP3A4 at 10 uM after 24 hrs by dual luciferase reporter gene assay relative to control

## Clc1ccc(-c2nc3sccn3c2/C=N/OCc2ccc(Cl)c(Cl)c2)cc1
[1]
  Activity: Active
[2]
  Activity: Not Active

## Clc1cnc(Oc2ccc(Oc3ncc(Cl)cc3Cl)cc2)c(Cl)c1
[3]
  Activity: Not Active
[4]
  Activity: Not Active

## CC(=O)N1CCN(c2ccc(OCC3COC(Cn4ccnc4)(c4ccc(Cl)cc4Cl)O3)cc2)CC1 (stereo not drawn) [KETOCONAZOLE]
[5]
  inhibition (INH): Active
[6]
  inhibition (INH): Active

## CCC1(c2ccccc2)C(=O)NC(=O)NC1=O [PHENOBARBITAL SODIUM]
[7]
  fold induction at 24 h, 100 µM: 12
CAR (CYP2B1 reporter)
  fold induction at 24 h, 100 µM: 9
[8]
  fold induction at 24 h, 100 µM: 48

## CC(=O)[C@H]1[C@H](C#N)C[C@H]2[C@@H]3CC=C4C[C@@H](O)CC[C@]4(C)[C@H]3CC[C@@]21C [PREGNENOLONE CARBONITRILE]
[9]
  Activity: Not Active
PXR (CYP3A4 reporter) [10]
  fold induction at 24 h, 10 µM: 19
PXR (CYP3A4 reporter) [11]
  fold induction at 24 h, 10 µM: 9
[12]
  Activity: Not Active
